From patent US20050032873A1, “3-Amino chroman and 2-amino tetralin derivatives” (Wyeth, priority 2003, published 2005) come the findings set out here.

One assay addresses T1, serotonin transporter (Rattus norvegicus, UniProt P31652).
T1 construct: displace ^3H-paroxetine from male rat cortical membranes; from tissue; host or cells: male rat cortical membranes
Put plainly: 5-HT transporter affinity: displacement of 3H-paroxetine from male rat cortical membranes. The class given is binding. As to conditions: displacement of 3H-paroxetine, male rat cortical membranes; for pKi: read-out: 5-HT Transporter Affinity Ki. On the technique in general: Loss of bound radioactivity is the signal in a displacement assay; it reports binding, not function.

In assay [1] the target is T2, 5-HT1A receptor (Homo sapiens, UniProt P08908).
T2 sequence (P08908 1-422): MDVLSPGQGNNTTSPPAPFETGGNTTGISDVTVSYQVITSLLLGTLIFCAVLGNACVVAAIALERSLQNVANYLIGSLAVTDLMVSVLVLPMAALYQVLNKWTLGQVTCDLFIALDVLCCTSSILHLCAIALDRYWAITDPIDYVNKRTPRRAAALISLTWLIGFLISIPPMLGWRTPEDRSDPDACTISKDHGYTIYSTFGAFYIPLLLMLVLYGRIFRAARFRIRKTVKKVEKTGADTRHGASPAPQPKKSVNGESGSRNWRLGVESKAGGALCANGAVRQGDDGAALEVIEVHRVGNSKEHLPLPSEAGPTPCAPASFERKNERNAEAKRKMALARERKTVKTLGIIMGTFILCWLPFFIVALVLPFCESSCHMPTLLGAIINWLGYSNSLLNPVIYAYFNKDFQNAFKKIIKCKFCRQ
As to the kind of experiment: 5-HT1A receptor affinity: displacement of [3H] 8-OH-DPAT. In kind it is binding. More on the design: expressed in transfected cells. Conditions: for inhibition at 1 µM: read-out: 5-HT1A Receptor Affinity, % @ 1 μM; for pKi: displacement of [3H] 8-OH-DPAT, CHO cells stably transfected with human 5-HT1A receptors, read-out: 5-HT1A Receptor Affinity Ki.

Assay [2] has as its target T3, cloned human 5-HT1A receptors (Homo sapiens, UniProt P08908).
T3 construct: expressed in transfected cells
T3 sequence (P08908 1-422): T2 sequence (P08908 1-422)
As to the kind of experiment: 35S-GTPγS binding assay, 5-HT1A function. In kind it is biochemical. As to conditions: for pIC50: antagonist potency, reversal of 8-OH-DPAT, read-out: 5-HT1A Function GTPγS IC50.

Assay [3] deals with T2, 5-HT1A receptor. Put plainly: cAMP accumulation assay, 5-HT1A function. The class given is cell-based. As to conditions: for Emax / 5-HT1A Function cAMP (Emax): in brackets after EC50 or IC50; for Emax: read-out: 5-HT1A Function cAMP (Emax); for pEC50: cells marked EC50 (agonist). (In general: Changes in cAMP serve as a functional read-out for many G protein-coupled receptors.)

[4] abbreviates: maximum stimulatory effect, in brackets after EC50, read-out: 5-HT1A Function GTPγS (Emax).
The mark [5] stands for this setting: maximum inhibitory effect, in brackets after IC50.
The mark [6] stands for this setting: maximum inhibitory effect, in brackets after IC50, read-out: 5-HT1A Function GTPγS (Imax).

The structures appear in SMILES notation. pEC50, pIC50, pKi: −log10 of the molar value. Read-outs that look alike come from different tables or passages of the source.

In general, Ki refers to the equilibrium dissociation constant of an inhibitor or competing ligand from its target. Higher therefore signals weaker binding. In general, pEC50 refers to the EC50 on a negative log10 scale, so that one unit is a factor of ten. Lower therefore signals a large EC50. What is called pKi is −log10 of the Ki, conventionally taken in molar units. What is called pIC50 is the negative decadic logarithm of the IC50, by convention in mol/L.

T1 sequence (P31652 whole entry): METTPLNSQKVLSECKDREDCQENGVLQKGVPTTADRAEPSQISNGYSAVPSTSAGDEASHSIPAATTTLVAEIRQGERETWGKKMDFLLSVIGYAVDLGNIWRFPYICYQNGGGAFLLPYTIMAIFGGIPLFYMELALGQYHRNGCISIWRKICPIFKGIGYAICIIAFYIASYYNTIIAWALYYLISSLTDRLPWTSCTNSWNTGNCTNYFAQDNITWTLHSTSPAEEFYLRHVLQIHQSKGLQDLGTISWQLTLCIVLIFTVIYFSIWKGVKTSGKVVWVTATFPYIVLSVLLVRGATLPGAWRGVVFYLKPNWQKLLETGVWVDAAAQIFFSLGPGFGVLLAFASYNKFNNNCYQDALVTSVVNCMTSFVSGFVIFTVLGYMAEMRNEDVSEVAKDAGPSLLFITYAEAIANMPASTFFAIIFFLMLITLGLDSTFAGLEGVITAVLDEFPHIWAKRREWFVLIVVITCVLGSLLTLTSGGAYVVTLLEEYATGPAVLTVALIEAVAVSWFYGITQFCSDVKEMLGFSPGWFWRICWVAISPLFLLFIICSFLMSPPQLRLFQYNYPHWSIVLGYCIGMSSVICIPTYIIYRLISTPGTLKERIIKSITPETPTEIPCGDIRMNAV

`COc1cccc2c1CC(N[C@H]1CC[C@@H](c3c[nH]c4ccc(C#N)cc43)CC1)CO2` (relative stereo) [Compound 180a, 3-[(1,4-cis)-4-(5-Methoxy-chroman-3-ylamino)-cyclohexyl]-1H-indole-5-carbonitrile] came in with an inhibition constant (Ki) at serotonin transporter (5-HT Transporter Affinity Ki (nM)) of 13 nM. Further, the inhibition at 1 µM on 5-HT1A receptor [1] turned out to be 19%. In addition, in assay [2] (agonist potency), the negative-log EC50 (pEC50) is 5.37. Besides, the Emax in assay [2] (setting [4]) is 100%.

Turning to `CCCN(C(C)CCc1c[nH]c2ccc(F)cc12)C1COc2c(F)ccc(C(N)=O)c2C1` (single isomer, unassigned) [Compound 12d, 8-fluoro-3-[[3-(5-fluoro-1H-indol-3-yl)-1-methylpropyl](propyl)amino]-3,4-dihydro-2H-chromene-5-carboxamide], the negative-log Ki (pKi) on serotonin transporter is 6.82. In addition, the pIC50 in assay [2] was 5.22. In assay [2] (setting [5]), this compound yielded a 5-HT1A Function GTPγS (Imax) of 13%.

Turning to `CCCN(C(C)CCc1c[nH]c2ccc(C#N)cc12)C1COc2c(F)ccc(C(N)=O)c2C1` (single isomer, unassigned) [Compound 13d, 3-[[3-(5-cyano-1H-indol-3-yl)-1-methylpropyl](propyl)amino]-8-fluoro-3,4-dihydro-2H-chromene-5-carboxamide], the negative logarithm of the Ki (pKi) on serotonin transporter was 6.95.

For `CC(CCc1c[nH]c2c(F)cc(F)cc12)N(CC1CC1)C1COc2c(F)ccc(C(N)=O)c2C1` (single isomer, unassigned) [Compound 154b, 3-{(cyclopropylmethyl)[3-(5,7-difluoro-1H-indol-3-yl)-1-methylpropyl]amino}-8-fluorochromane-5-carboxamide], the negative logarithm of the Ki (pKi) on serotonin transporter was 6.66; on 5-HT1A receptor [1], 7.05.

For the compound `NC(=O)c1ccc(F)c2c1CC(N(CCCc1c[nH]c3ccc(F)cc13)C1CCC1)CO2` (single isomer, unassigned; (+)) [Compound 4a, (+)-3-{cyclobutyl[3-(5-fluoro-1H-indol-3-yl)propyl]amino}-8-fluorochromane-5-carboxamide], the pKi at serotonin transporter was 8.31. Further, the Emax at 5-HT1A receptor [3] was determined as 0%.

Turning to `NC(=O)c1ccc(F)c2c1CC(N(CCCc1c[nH]c3ccc(F)cc13)CC1CC1)CO2` (single isomer, unassigned; (+)) [Compound 5b, (+)-3-{(cyclopropylmethyl)[3-(5-fluoro-1H-indol-3-yl)propyl]amino}-8-fluorochromane-5-carboxamide], the pKi at serotonin transporter was 8.43. For the same compound, the 5-HT1A Function cAMP (Emax) on 5-HT1A receptor [3] stood at 69%. Moreover, in assay [2] (setting [5]), the 5-HT1A Function GTPγS (Imax) is 82%. The Emax in assay [2] (setting [4]) came to 18%.

For `NC(=O)c1ccc(F)c2c1CC(NCCCc1c[nH]c3ccc(F)cc13)CO2` (single isomer, unassigned; (-)) [Compound 1b, (−)-8-fluoro-3-{[3-(5-fluoro-1H-indol-3-yl)propyl]amino}chromane-5-carboxamide], the pKi on serotonin transporter is 7.12. On 5-HT1A receptor [1], the inhibition at 1 µM was 47%.

For the compound `NC(=O)c1ccc(F)c2c1CC(N(CCCc1c[nH]c3ccc(F)cc13)C1CCC1)CO2` (single isomer, unassigned; (-)) [Compound 4b, (−)-3-{cyclobutyl[3-(5-fluoro-1H-indol-3-yl)propyl]amino}-8-fluorochromane-5-carboxamide], the negative-log Ki (pKi) at serotonin transporter was 8.82. In addition, the 5-HT1A Function cAMP (Emax) on 5-HT1A receptor [3] stood at 0%.

For `NC(=O)c1ccc(F)c2c1CC(N(CCCc1c[nH]c3ccc(F)cc13)CC1CC1)CO2` (single isomer, unassigned; (-)) [Compound 5a, (−)-3-{(cyclopropylmethyl)[3-(5-fluoro-1H-indol-3-yl)propyl]amino}-8-fluorochromane-5-carboxamide], the pKi at serotonin transporter is 8.39. This compound also registered a 5-HT1A Function cAMP (Emax) on 5-HT1A receptor [3] of 0%. Besides, in assay [2] (setting [6]), the Emax turned out to be 100%.

Regarding `NC(=O)c1ccc(F)c2c1CC(N(CCCc1c[nH]c3ccc(F)cc13)C1CCC1)CO2` (stereo not drawn) [Compound 4, 3-{cyclobutyl[3-(5-fluoro-1H-indol-3-yl)propyl]amino}-8-fluorochromane-5-carboxamide], the pKi on serotonin transporter was 8.59. Besides, on 5-HT1A receptor [3], the Emax was 0%.

Consider `NC(=O)c1ccc(F)c2c1CC(N(CCCc1c[nH]c3ccc(F)cc13)CC1CC1)CO2` (stereo not drawn) [Compound 5, 3-{(cyclopropylmethyl)[3-(5-fluoro-1H-indol-3-yl)propyl]amino}-8-fluorochromane-5-carboxamide], for which the negative-log Ki (pKi) on serotonin transporter is 8.44. Further, the Emax at 5-HT1A receptor [3] was determined as 0%; in assay [2] (setting [6]), 88.2%; in assay [2] (setting [4]), 28.4%.

With `COc1cccc2c1CC(N(CCCCc1c[nH]c3ccc(F)cc13)C1CCC1)CO2` (stereo not drawn) [Compound 36, N-cyclobutyl-N-[4-(5-fluoro-1H-indol-3-yl)butyl]-N-(5-methoxy-3,4-dihydro-2H-chromen-3-yl)amine], at 5-HT1A receptor [3], the negative logarithm of the EC50 (pEC50) is 7.91 and the Emax amounted to 61%. The negative logarithm of the Ki (pKi) at 5-HT1A receptor [1] is 7.93. Moreover, the pIC50 in assay [2] is 6.18. The Emax in assay [2] (setting [6]) came to 56%.

Take `COC(=O)c1ccc(F)c2c1CC(NCCCc1c[nH]c3ccc(F)cc13)CO2` (stereo not drawn) [Compound 54, Methyl 8-fluoro-3-{[3-(5-fluoro-1H-indol-3-yl)propyl]amino}chromane-5-carboxylate]: the 5-HT1A Function GTPγS (Emax) in assay [2] (maximum stimulatory effect, in brackets after EC50) came to 85%.

As for `O=C(NCc1ccccc1)c1ccc(F)c2c1CC(N(CCCc1c[nH]c3ccc(F)cc13)C1CCC1)CO2` (stereo not drawn) [Compound 69, N-benzyl-3-{cyclobutyl[3-(5-fluoro-1H-indol-3-yl)propyl]amino}-8-fluorochromane-5-carboxamide], the pKi at serotonin transporter is 7.82. Also, the inhibition at 1 µM on 5-HT1A receptor [1] came out at 3%.

For the compound `NC(=O)c1ccc(F)c2c1CC(N(CCCc1c[nH]c3ccc(F)cc13)Cc1ccccc1)CO2` (stereo not drawn) [Compound 74, 3-{benzyl[3-(5-fluoro-1H-indol-3-yl)propyl]amino}-8-fluorochromane-5-carboxamide], on serotonin transporter, the pKi was 6.19. In addition, on 5-HT1A receptor [1], the inhibition at 1 µM is 20%.

Take `CNC(=O)c1ccc(F)c2c1CC(NCCc1c[nH]c3ccc(F)cc13)CO2` (stereo not drawn) [Compound 84, 8-fluoro-3-{[2-(5-fluoro-1H-indol-3-yl)ethyl]amino}-N-methylchromane-5-carboxamide]: at serotonin transporter, the pKi was 7.08. Also, at 5-HT1A receptor [1], the inhibition at 1 µM is 0%.

As to `COc1ccc2[nH]cc(CCCNC3COc4c(F)ccc(C(N)=O)c4C3)c2c1` (stereo not drawn) [Compound 104, 8-fluoro-3-{[3-(5-methoxy-1H-indol-3-yl)propyl]amino}chromane-5-carboxamide], the figures for the negative logarithm of the Ki (pKi) at serotonin transporter and on 5-HT1A receptor [1] were 5.39 and 7.78, respectively.

With `NC(=O)c1ccc(F)c2c1CC(NCCCc1c[nH]c3c(Cl)cccc13)CO2` (stereo not drawn) [Compound 109, 3-{[3-(7-chloro-1H-indol-3-yl)propyl]amino}-8-fluorochromane-5-carboxamide], the negative logarithm of the Ki (pKi) at serotonin transporter is 7.16; on 5-HT1A receptor [1], 7.56.

As for `NC(=O)c1ccc(F)c2c1OCC(N(CCCc1c[nH]c3ccc(F)cc13)C1CCC1)C2` (stereo not drawn) [Compound 122, 3-{cyclobutyl[3-(5-fluoro-1H-indol-3-yl)propyl]amino}-5-fluorochromane-8-carboxamide], the negative-log Ki (pKi) on serotonin transporter is 7.15. For the same compound, on 5-HT1A receptor [1], the inhibition at 1 µM was 0%.

`NC(=O)c1ccc(F)c2c1OCC(N(CCCCc1c[nH]c3ccc(F)cc13)C1CCC1)C2` (stereo not drawn) [Compound 126, 3-{cyclobutyl[4-(5-fluoro-1H-indol-3-yl)butyl]amino}-5-fluorochromane-8-carboxamide]: the pKi on serotonin transporter was 7.77. For the same compound, the inhibition at 1 µM at 5-HT1A receptor [1] came to 0%.

Consider `NC(=O)c1ccc(F)c2c1OCC(N(CCCc1c[nH]c3c(F)cc(F)cc13)C1CCC1)C2` (stereo not drawn) [Compound 131, 3-{cyclobutyl[3-(5,7-difluoro-1H-indol-3-yl)propyl]amino}-5-fluorochromane-8-carboxamide], for which the pKi at serotonin transporter is 6.79. Further, the inhibition at 1 µM on 5-HT1A receptor [1] came to 49%.

Regarding `NC(=O)c1ccc(F)c2c1CC(NCCCn1ccc3ccccc31)CO2` (stereo not drawn) [Compound 184, 8-Fluoro-3-{[3-(1H-indol-1-yl)propyl]amino}chromane-5-carboxamide], on serotonin transporter, the pKi is 6.21. In addition, the inhibition at 1 µM on 5-HT1A receptor [1] amounted to 46%.

Turning to `CCCN(CCCCn1ccc2cccc(F)c21)C1COc2c(F)ccc(C(N)=O)c2C1` (stereo not drawn) [Compound 190, 8-Fluoro-3-[[4-(7-fluoro-1H-indol-1-yl)butyl](propyl)amino]chromane-5-carboxamide], the pEC50 at 5-HT1A receptor [3] is 6.49. Further, the Emax was 59% on 5-HT1A receptor [3] and 84% in assay [2] (setting [6]). For the same compound, on 5-HT1A receptor [1], the pKi is 7.78. Also, the pIC50 in assay [2] was 5.44.

For the compound `NC(=O)c1ccc(F)c2c1CC(N(CCCCn1ccc3c(F)cccc31)C1CCC1)CO2` (stereo not drawn) [Compound 204, 3-{Cyclobutyl[4-(4-fluoro-1H-indol-1-yl)butyl]amino}-8-fluorochromane-5-carboxamide], the figures for the negative-log Ki (pKi) on serotonin transporter and at 5-HT1A receptor [1] were 6.54 and 7.76, respectively.
